Publication PMC3714356 (The Journal of investigative dermatology, 2013)
Like-named read-outs stand apart in the source and are kept apart here.

Legend:
Cyp1a1 [1] = experiment: HaCaT cells, CYP1A1 mRNA by Reverse Transcriptase Real-Time PCR; conditions: for induction of CYP1A1 mRNA: 100 nM; for Cyp1a1 induction, time dependence: 24h compared to 3 and 6h
Cyp1b1 = experiment: HaCaT cells, CYP1B1 mRNA by Reverse Transcriptase Real-Time PCR; type: cell-based, human; conditions: 1 μM, 24h
AhR [2] = molecular target: T1, AhR (Homo sapiens, UniProt P35869); experiment: cell-based
T1 sequence (P35869 11-848): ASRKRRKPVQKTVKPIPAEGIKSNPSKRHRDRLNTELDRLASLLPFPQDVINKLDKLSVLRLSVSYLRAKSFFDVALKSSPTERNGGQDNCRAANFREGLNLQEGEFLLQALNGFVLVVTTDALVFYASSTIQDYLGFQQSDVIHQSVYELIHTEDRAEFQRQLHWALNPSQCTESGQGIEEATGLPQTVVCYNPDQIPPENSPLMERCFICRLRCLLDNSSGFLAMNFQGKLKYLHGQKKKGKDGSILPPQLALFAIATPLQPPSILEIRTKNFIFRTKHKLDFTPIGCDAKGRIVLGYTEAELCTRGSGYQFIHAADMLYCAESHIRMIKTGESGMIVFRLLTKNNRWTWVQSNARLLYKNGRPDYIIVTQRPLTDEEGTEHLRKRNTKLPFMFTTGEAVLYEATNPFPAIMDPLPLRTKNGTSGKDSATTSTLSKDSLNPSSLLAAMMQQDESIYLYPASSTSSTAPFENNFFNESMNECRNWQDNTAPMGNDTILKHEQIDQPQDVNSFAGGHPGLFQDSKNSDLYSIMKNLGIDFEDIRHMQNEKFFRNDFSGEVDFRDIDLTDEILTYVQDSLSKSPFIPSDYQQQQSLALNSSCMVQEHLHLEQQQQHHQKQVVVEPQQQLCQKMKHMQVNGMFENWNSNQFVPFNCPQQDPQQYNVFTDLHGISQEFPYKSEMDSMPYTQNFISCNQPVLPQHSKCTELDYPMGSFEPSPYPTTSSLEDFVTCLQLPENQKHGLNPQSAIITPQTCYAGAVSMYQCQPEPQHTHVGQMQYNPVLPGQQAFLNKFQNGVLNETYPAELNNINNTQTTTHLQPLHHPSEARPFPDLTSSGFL

Cyp1a1 [3] = conditions: human
AhR [4] = molecular target: T1, AhR
[5] = 6 hours of incubation, HG2L7.5c1 cells

Compound	induction of CYP1A1 mRNA (Cyp1a1 [1]; 24h)	Cyp1a1 induction, time dependence (Cyp1a1 [1])	EC50 (AhR [2]) [nM]	other results
O=Cc1c2[nH]c3ccccc3c2cc2[nH]c3ccccc3c12 [FICZ, 6-formylindolo[3,2-b]carbazole]	Statistically significant induction	higher at 24h		Cyp1a1 induction compared with ICZ or indirubin (Cyp1a1 [1]; 1 μM, 24h): significantly more potent; Cyp1b1 induction compared with ICZ or indirubin (Cyp1b1): significantly more potent
Clc1cc2c(cc1Cl)Oc1cc(Cl)c(Cl)cc1O2 [TCDD, 2,3,7,8-tetrachlorodibenzo-p-dioxin, reference compound]			0.523	
O=C1Nc2ccccc2/C1=C1/Nc2ccccc2C1=O [indirubin]				Cyp1a1 induction, time dependence (Cyp1a1 [3]): higher at 24h
O=Cc1c(Cc2c[nH]c3ccccc23)[nH]c2ccccc12 [malassezin]				fold less potent than TCDD (AhR [4]; [5]): 20 fold
O=C1c2ccccc2-n2c1nc1ccccc1c2=O [tryptanthrin]			107	fold less potent than TCDD (AhR [4]): 200 fold
indolo[3,2-b]carbazole [ICZ]	Statistically significant induction	higher at 24h		potency relative to the prototypical AhR agonist TCDD (AhR [4]; [5]): equipotent
